Entries after “also recorded” stand apart in the source; their conditions may differ.
Tests used:
lactating goats [1] = experiment: Experiment 1: systemic (intravenous) administration of heparin, toxicity study in lactating goats; type: in vivo, goat
Description: (§1) A study was conducted to determine if the production of heparin in the mammary gland would also have a significant effect on the producing animal. The protein produced by the transgene can potentially affect the mammary gland directly. In addition, it is known that there is potential leakage of the protein into the systemic system. To assess the potential effects of systemic and infused heparin on the goat, the study outlined below was performed. Blood was drawn and milk collected from each milking animal at least once daily during two experiments to determine the effects of heparin administration relative to systemic and udder infusion routes. The levels of heparin, and clotting times as indicated by aPTT were calculated from blood serum. Milk volumes were measured and heparin levels in the milk were determined. In addition, the quality of the milk (color, consistency, evidence of clumping, blood, or mastitis) was noted. The general health of each animal was assessed daily, including a rectal temperature. Since heparin is an anticoagulant, animals were also inspected daily for any gross signs of bleeding, such as abnormal bruising or petechiae. Six normal, non-transgenic, lactating goats were fed approximately four pounds of specially formulated vegetarian goat feed, per day, and given a combination of timothy and alfalfa hay as well as free access to water and plain and mineralized salt blocks. As these were lactating animals, they were milked daily starting on the day they arrived. The milk volume was measured each day and a rectal temperature recorded Milk volumes and rectal temperatures prior to the first or second experiment can be seen below in Table 7. Animals were manually restrained so that the jugular vein could be identified. A 21-gauge ¾ inch butterfly needle (BD Vacutainer Blood Collection Set Ref 367251, Franklin Lakes, N.J. USA) was inserted into the vessel, and the blood was collected into 2-1.8 ml sodium citrate vacutainer tubes (BD Vacutainer, Buffered Na Citrate, Franklin Lakes, N.J. USA). After collection (or after blood collection and heparin administration—see below) the needle was removed, and pressure was applied at the collection site to stop any bleeding. The animal received positive reinforcement (grain reward) after each procedure. The animals were restrained as above. The butterfly needle used for blood collection described above is designed so that blood can be collected via a vacutainer blood collection tube, or a syringe can be attached. Thus, after blood collection, the part of the needle that connects with the blood collection tube was removed, and a syringe with heparin was attached and the heparin was slowly injected. An additional 0.4 ml of sterile normal saline was flushed through the needle to ensure that all heparin was delivered. In this way a single needle placement was used for both blood collection and heparin injection, and any additional stress relative to a second venipuncture site was avoided. All goats were milked using a portable milking machine, once every day starting the day the goats arrived. Animals were placed on a milking stand for this procedure. The general protocol for milking was as follows. Personnel doing the milking washed their hands thoroughly and donned latex examination gloves. The udder was cleaned using paper towels and water. The udder was then dried using clean paper towels. […]

lactating goats [2] = experiment: Experiment 2: udder infusion of heparin, toxicity study in lactating goats; type: in vivo, goat
Description: as §1, with “procedure.” for “procedure. The animals were restrained as above. The butterfly needle used for blood collection described above is designed so that blood can be collected via a vacutainer blood collection tube, or a syringe can be attached. Thus, after blood collection, the part of the needle that connects with the blood collection tube was removed, and a syringe with heparin was attached and the heparin was slowly injected. An additional 0.4 ml of sterile normal saline was flushed through the needle to ensure that all heparin was delivered. In this way a single needle placement was used for both blood collection and heparin injection, and any additional stress relative to a second venipuncture site was avoided.”, “towels. The teat was cleaned again using alcohol wipes, and pre-dip (FS-106 Sanitizing Teat Dip, IBA Inc., Millbury, Mass. USA) was applied and allowed to dry. A small sample was expressed from the teat by hand to assess milk quality, perform a streak test, and to be frozen for further analysis. The milking machine was then attached to the udder. After milking, the teats were cleaned with alcohol, and post milking disinfectant was applied (Ultra Shield Sanitizing Barrier Teat Dip, IBA Inc., Millbury, Mass. USA). The volume of milk was determined, and the small sample was frozen and stored in a −80° C. chest freezer for subsequent testing. The six milking goats were divided into 3 groups of 2 goats. All goats were milked daily with a milking machine, and had blood samples taken. After milking and blood collection, goats had their udders infused with heparin using a teat infusion cannula (Udder Infusion Cannula, IBA Inc., Millbury, Mass. USA). Each group received either a low (25,000 Units), medium (100,000 Units), or high (500,000 Units) dose of infused heparin, equivalent to the 3 different expression levels being explored on a per liter of milk basis. Volumes infused were less than 50 ml per udder. This protocol was performed for a total of seven days.” for “towels.”

[3] = Medium dose udder infusion (100,000 units per liter), Animal 4, days 1-8, day 1
[4] = Medium dose udder infusion (100,000 units per liter), Animal 4, days 1-8, day 2
[5] = Medium dose udder infusion (100,000 units per liter), Animal 4, days 1-8, day 3
[6] = Medium dose udder infusion (100,000 units per liter), Animal 4, days 1-8, day 4
[7] = Medium dose udder infusion (100,000 units per liter), Animal 4, days 1-8, day 5
[8] = Medium dose udder infusion (100,000 units per liter), Animal 4, days 1-8, day 6
[9] = Medium dose udder infusion (100,000 units per liter), Animal 4, days 1-8, day 7
[10] = goat infused with the highest levels
[11] = udder infusion, low or medium dose for a week

heparin
aPTT (lactating goats [1]; High dose (31,000 Units IV TID), noon and 4 PM samples, above instrument maximum): > 124 s | aPTT overnight between the two high doses (lactating goats [1]; High dose IV, second High AM sample prior to AM dose): low 40's; also recorded: dropped to more normal levels overnight | Lung sounds (lactating goats [1]; High dose IV, second day, noon and 4 PM examinations): increase in lung sounds in one animal | Petechiae or abnormal bleeding (lactating goats [1]; IV heparin over 6 days, any dose): no obvious gross signs of bleeding; also recorded: no evidence of petechiae or abnormal bleeding | Milk volumes and body temperatures (lactating goats [1]; any IV dose): little, if any, effect; also recorded: not affected | Milk volume (lactating goats [2]; Low dose udder infusion (25,000 units/liter), Animal 1, days 1-8 (daily infusion days 1-7), day 1): 2.25 L | Milk volume (lactating goats [2]; Low dose udder infusion (25,000 units/liter), Animal 1, days 1-8 (daily infusion days 1-7), day 3): 2.2 L | Milk volume (lactating goats [2]; Low dose udder infusion (25,000 units/liter), Animal 1, days 1-8 (daily infusion days 1-7), day 4): 2.0 L | Milk volume (lactating goats [2]; Low dose udder infusion (25,000 units/liter), Animal 1, days 1-8 (daily infusion days 1-7), day 5): 1.9 L | Milk volume (lactating goats [2]; Low dose udder infusion (25,000 units/liter), Animal 1, days 1-8 (daily infusion days 1-7), day 6): 1.8 L | Milk volume (lactating goats [2]; Low dose udder infusion (25,000 units/liter), Animal 1, days 1-8 (daily infusion days 1-7), day 7): 1.7 L | aPTT time (lactating goats [2]; Low dose udder infusion (25,000 units/liter), Animal 1, days 1-8, day 1): 23.2 s | aPTT time (lactating goats [2]; Low dose udder infusion (25,000 units/liter), Animal 1, days 1-8, day 2): 36 s | aPTT time (lactating goats [2]; Low dose udder infusion (25,000 units/liter), Animal 1, days 1-8, day 3): 37 s | aPTT time (lactating goats [2]; Low dose udder infusion (25,000 units/liter), Animal 1, days 1-8, day 4): 34.9 s | aPTT time (lactating goats [2]; Low dose udder infusion (25,000 units/liter), Animal 1, days 1-8, day 5): 34.5 s | aPTT time (lactating goats [2]; Low dose udder infusion (25,000 units/liter), Animal 1, days 1-8, day 6): 34.6 s | aPTT time (lactating goats [2]; Low dose udder infusion (25,000 units/liter), Animal 1, days 1-8, day 7): 33.5 s | aPTT time (lactating goats [2]; Low dose udder infusion (25,000 units/liter), Animal 1, days 1-8, day 8): 33.1 s | Milk volume (lactating goats [2]; Medium dose udder infusion (100,000 units per liter), Animal 2, days 1-8, day 1): 2 L | Milk volume (lactating goats [2]; Medium dose udder infusion (100,000 units per liter), Animal 2, days 1-8, day 2): 1.35 L | Milk volume (lactating goats [2]; Medium dose udder infusion (100,000 units per liter), Animal 2, days 1-8, day 3): 1.5 L | Milk volume (lactating goats [2]; Medium dose udder infusion (100,000 units per liter), Animal 2, days 1-8, day 4): 1.6 L | Milk volume (lactating goats [2]; Medium dose udder infusion (100,000 units per liter), Animal 2, days 1-8, day 5): 1.3 L | Milk volume (lactating goats [2]; Medium dose udder infusion (100,000 units per liter), Animal 2, days 1-8, day 6): 1.2 L | Milk volume (lactating goats [2]; Medium dose udder infusion (100,000 units per liter), Animal 2, days 1-8, day 7): 1.25 L | Milk volume (lactating goats [2]; Medium dose udder infusion (100,000 units per liter), Animal 2, days 1-8, day 8): 1.75 L | Milk volume (lactating goats [2]; [3]): 3.25 L | aPTT time (lactating goats [2]; [3]): 24.7 s | Milk volume (lactating goats [2]; [4]): 2.75 L | aPTT time (lactating goats [2]; [4]): 32.7 s | Milk volume (lactating goats [2]; [5]): 2.5 L | aPTT time (lactating goats [2]; [5]): 44 s | Milk volume (lactating goats [2]; [6]): 1.9 L | aPTT time (lactating goats [2]; [6]): 30.2 s | Milk volume (lactating goats [2]; [7]): 2.2 L | aPTT time (lactating goats [2]; [7]): 42.4 s | Milk volume (lactating goats [2]; [8]): 2.0 L | aPTT time (lactating goats [2]; [8]): 42.1 s | Milk volume (lactating goats [2]; [9]): 2.25 L | aPTT time (lactating goats [2]; [9]): 22.9 s | aPTT time (lactating goats [2]; Medium dose udder infusion (100,000 units per liter), Animal 4, days 1-8, day 8): 29.8 s | Milk volume during heparin infusion into the udder (lactating goats [2]; all infusion levels): initial drop in milk volume | Milk production (lactating goats [2]; [10]): dramatic decrease in milk production | Udder response (lactating goats [2]; [10]): inflammatory response | aPTT (lactating goats [2]; high levels of infused heparin): dramatically increased | Goat health and milk production (lactating goats [2]; low and medium doses of systemic and infused heparin (overall conclusion)): minimal effects | aPTT (lactating goats [2]; single daily udder infusions of low or medium dose for a week): ≤ 55 s | Systemic effects (lactating goats [2]; udder infusion of the highest levels): high body temperature and increased respiratory sounds | Body temperature (lactating goats [2]; [11]): little effect | Signs of bleeding (lactating goats [2]; [11]): did not produce any signs of bleeding | aPTT during washout period after heparin udder infusion (lactating goats [2]; washout after udder infusion): 20 to 40 s

From patent publication US20160326547A1, “TRANSGENIC PRODUCTION OF HEPARIN” (LFB USA, INC., priority 2013, published 2016)
